Where two headings read alike, the source gives them in different places.
Biological target: recombinant human SAE enzyme (Homo sapiens (Human), UniProt Q9UBT2)
Assay: SAE HTRF enzyme assay
Format: biochemical
Details: for inhibition at 0.111 µM: read-out: Percent Inhibition
In short: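 Human SAE (0.11 nM) with 0.5 μM ATP, 0.125 μM Sumo-Flag and 0.01 μM Ubc9-GST in HEPES pH 7.5, 5 mM MgCl2, 250 μM GSH; 105 min at 24 °C. Stopped with EDTA; HTRF read after 2 h with Eu-anti-Flag and APC-anti-GST. Percent inhibition or IC50 reported.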

[1] = SAE inhibition at compound concentration 0.111 μM
[2] = SAE inhibition, class symbols, legend in nM

Chain of recombinant human SAE enzyme (Q9UBT2 whole entry): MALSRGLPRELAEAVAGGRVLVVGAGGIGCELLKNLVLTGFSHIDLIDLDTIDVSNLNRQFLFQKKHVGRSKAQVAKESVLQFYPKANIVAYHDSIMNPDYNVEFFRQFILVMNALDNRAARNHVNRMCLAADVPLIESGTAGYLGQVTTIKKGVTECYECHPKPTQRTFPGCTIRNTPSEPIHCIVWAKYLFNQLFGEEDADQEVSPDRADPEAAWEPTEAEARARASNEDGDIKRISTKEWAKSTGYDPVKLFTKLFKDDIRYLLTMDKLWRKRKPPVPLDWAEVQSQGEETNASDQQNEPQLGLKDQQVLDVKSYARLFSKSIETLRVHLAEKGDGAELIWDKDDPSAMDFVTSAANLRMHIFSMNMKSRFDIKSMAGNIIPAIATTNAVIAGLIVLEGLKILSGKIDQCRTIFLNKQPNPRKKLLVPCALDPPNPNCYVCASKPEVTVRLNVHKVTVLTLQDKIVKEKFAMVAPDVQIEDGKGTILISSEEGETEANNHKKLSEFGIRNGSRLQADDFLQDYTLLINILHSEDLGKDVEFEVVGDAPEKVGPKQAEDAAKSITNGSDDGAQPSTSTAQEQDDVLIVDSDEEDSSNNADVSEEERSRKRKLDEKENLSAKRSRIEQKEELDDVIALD
Chain of recombinant human SAE enzyme (Q9UBE0 whole entry partner): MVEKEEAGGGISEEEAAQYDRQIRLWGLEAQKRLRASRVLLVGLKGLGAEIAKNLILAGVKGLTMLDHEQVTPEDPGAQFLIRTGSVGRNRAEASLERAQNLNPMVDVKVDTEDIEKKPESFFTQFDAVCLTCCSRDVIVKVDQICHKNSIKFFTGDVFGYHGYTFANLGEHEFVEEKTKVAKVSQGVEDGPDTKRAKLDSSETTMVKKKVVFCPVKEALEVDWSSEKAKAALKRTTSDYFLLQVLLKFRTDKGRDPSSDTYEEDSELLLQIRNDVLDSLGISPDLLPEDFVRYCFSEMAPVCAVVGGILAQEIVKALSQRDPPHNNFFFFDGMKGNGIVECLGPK

| SMILES | inhibition at 0.111 µM (Concentration 0.111 μM) [%] | IC50 (class symbols A/B/C) [nM] | IC50 [2] [nM] | other results |
| --- | --- | --- | --- | --- |
| NS(=O)(=O)OC[C@H]1C[C@@H](Nc2ncncc2C(=O)c2cc(Cc3cccc(Br)c3)cs2)[C@@H](F)[C@@H]1O [I-101, {(1R,2R,3R,4R)-4-[(5-{[4-(3-bromobenzyl)-2-thienyl]carbonyl}pyrimidin-4-yl)amino]-3-fluoro-2-hydroxycyclopentyl}methyl sulfamate] | 96 | < 10 | – | – |
| Cc1sc(C(=O)c2cncnc2N[C@@H]2C[C@H](COS(N)(=O)=O)[C@@H](OC(=O)c3cccc(COP(=O)(O)O)c3)C2)cc1[C@@H]1OCCc2ccc(Cl)cc21 [I-345, (1S,2R,4R)-4-{[5-({4-[(1R)-7-chloro-3,4-dihydro-1H-isochromen-1-yl]-5-methyl-2-thienyl}carbonyl)pyrimidin-4-yl]amino}-2-[(sulfamoyloxy)methyl]cyclopentyl 3-[(phosphonooxy)methyl]benzoate] | – | – | 100 to 1000 | inhibition at 0.111 µM [1]: 5% |
| NS(=O)(=O)OC[C@H]1C[C@@H](Nc2ncncc2C(=O)c2cc(Cc3ccccc3Cl)cs2)C[C@@H]1O [I-165, {(1R,2S,4R)-4-[(5-{[4-(2-chlorobenzyl)-2-thienyl]carbonyl}pyrimidin-4-yl)amino]-2-hydroxycyclopentyl}methyl sulfamate] | 91 | 10 to 100 | – | – |
| NS(=O)(=O)OC[C@H]1C[C@@H](Nc2ncncc2C(=O)c2cc([C@@]3(C4CC4)CCCO3)cs2)C[C@@H]1O (mixture of isomers) [I-238, [(1R,2S,4R)-4-{[5-({4-[(2S)-2-cyclopropyltetrahydrofuran-2-yl]-2-thienyl}carbonyl)pyrimidin-4-yl]amino}-2-hydroxycyclopentyl]methyl sulfamate and [(1R,2S,4R)-4-{[5-({4-[(2R)-2-cyclopropyltetrahydrofuran-2-yl]-2-thienyl}carbonyl)pyrimidin-4-yl]amino}-2-hydroxycyclopentyl]methyl sulfamate] | – | 100 to 1000 | – | Percent Inhibition (Concentration 0.111 μM): 25 |
| C#Cc1cccc(Cc2csc(C(=O)c3cncnc3N[C@@H]3C[C@H](COS(N)(=O)=O)[C@@H](O)C3)c2)c1 [I-70, {(1R,2S,4R)-4-[(5-{[4-(3-Ethynylbenzyl)-2-thenyl]carbonyl}pyrimidin-4-yl)amino-2-hydroxycyclopentyl}methyl sulfamate] | – | < 10 | – | Percent Inhibition (Concentration 0.111 μM): 98 |
| Cc1ccc2ccn(Cc3csc(C(=O)c4cncnc4N[C@@H]4C[C@H](COS(N)(=O)=O)[C@@H](O)C4)c3)c2c1 [I-132, [(1R,2S,4R)-2-hydroxy-4-{[5-({4-[(6-methyl-1H-indol-1-yl)methyl]-2-thienyl}carbonyl)pyrimidin-4-yl]amino}cyclopentyl]methyl sulfamate] | 96 | < 10 | – | – |
| NS(=O)(=O)OC[C@H]1C[C@@H](Nc2ncncc2C(=O)c2ccc(Cc3cccc(Cl)c3)s2)[C@@H](F)[C@@H]1O [I-205, {(1R,2R,3R,4R)-4-[(5-{[5-(3-Chlorobenzyl)-2-thienyl]carbonyl}pyrimidin-4-yl)amino]-3-fluoro-2-hydroxycyclopentyl}methyl sulfamate] | 51 | 100 to 1000 | – | – |
| Cc1sc(C(=O)c2cncnc2N[C@@H]2C[C@H](COS(N)(=O)=O)[C@@H](O)C2)nc1[C@H](O)c1cccc(Cl)c1 (single isomer, unassigned) [I-355a, [(1R,2S,4R)-4-{[5-({4-[(R)-(3-chlorophenyl)(hydroxy)methyl]-5-methyl-1,3-thiazol-2-yl}carbonyl)pyrimidin-4-yl]amino}-2-hydroxycyclopentyl]methyl sulfamate or [(1R,2S,4R)-4-{[5-({4-[(S)-(3-chlorophenyl)(hydroxy)methyl]-5-methyl-1,3-thiazol-2-yl}carbonyl)pyrimidin-4-yl]amino}-2-hydroxycyclopentyl]methyl sulfamate] | – | – | < 10 | Percent Inhibition [1]: 98% |
| NS(=O)(=O)OC[C@H]1C[C@@H](Nc2ncncc2C(=O)c2cc([C@H]3OCCc4cccc(Cl)c43)cs2)C[C@@H]1O [I-365, [(1R,2S,4R)-4-[[5-[4-[(1S)-chloroisochroman-1-yl]thiophene-2-carbonyl]pyrimidin-4-yl]amino]-2-hydroxy-cyclopentyl]methyl sulfamate and [(1R,2S,4R)-4-[[5-[4-[(1R)-8-chloroisochroman-1-yl]thiophene-2-carbonyl]pyrimidin-4-yl]amino]-2-hydroxy-cyclopentyl]methyl sulfamate] | – | – | 10 to 100 | Percent Inhibition [1]: 62% |
| Cc1sc(C(=O)c2cncnc2N[C@@H]2C[C@H](COS(N)(=O)=O)[C@@H](O)C2)nc1Cc1cccc(Cl)c1 [I-353, {(1R,2S,4R)-4-[(5-{[4-(3-chlorobenzyl)-5-methyl-1,3-thiazol-2-yl]carbonyl}pyrimidin-4-yl)amino]-2-hydroxycyclopentyl}methyl sulfamate] | – | – | < 10 | inhibition at 0.111 µM [1]: 98% |
| COCc1ccc(C(=O)c2cncnc2N[C@@H]2C[C@H](COS(N)(=O)=O)[C@@H](O)C2)o1 [I-212, [(1R,2S,4R)-2-hydroxy-4-({5-[5-(methoxymethyl)-2-furoyl]pyrimidin-4-yl}amino)cyclopentyl]methyl sulfamate] | 43 | 100 to 1000 | – | – |
| NS(=O)(=O)OC[C@H]1C[C@@H](Nc2ncncc2C(=O)c2cc([C@@H]3OCCc4ccccc43)cs2)C[C@@H]1O (single isomer, unassigned) [I-254a, [(1R,2S,4R)-4-{[5-({4-[(1R)-3,4-dihydro-1H-isochromen-1-yl]-2-thienyl}carbonyl)pyrimidin-4-yl]amino}-2-hydroxycyclopentyl]methyl sulfamate or [(1R,2S,4R)-4-{[5-({4-[(1S)-3,4-dihydro-1H-isochromen-1-yl]-2-thienyl}carbonyl)pyrimidin-4-yl]amino}-2-hydroxycyclopentyl]methyl sulfamate] | – | 10 to 100 | – | Percent Inhibition (Concentration 0.111 μM): 81 |
| Cc1sc(C(=O)c2cncnc2N[C@@H]2C[C@H](COS(N)(=O)=O)[C@@H](O)C2)cc1[C@@H]1OCCc2cccnc21 (single isomer, unassigned) [I-285a, [(1R,2S,4R)-4-{[5-({4-[(8S)-5,8-dihydro-6H-pyrano[3,4-b]pyridin-8-yl]-5-methyl-2-thienyl}carbonyl)pyrimidin-4-yl]amino}-2-hydroxycyclopentyl]methyl sulfamate or [(1R,2S,4R)-4-{[5-({4-[(8R)-5,8-dihydro-6H-pyrano[3,4-b]pyridin-8-yl]-5-methyl-2-thienyl}carbonyl)pyrimidin-4-yl]amino}-2-hydroxycyclopentyl]methyl sulfamate] | – | – | < 10 | Percent Inhibition [1]: 101% |
| NS(=O)(=O)OC[C@H]1C[C@@H](Nc2ncncc2C(=O)c2cc([C@@H]3NCCc4ccc(Br)cc43)c(Cl)s2)[C@H](O)[C@@H]1O (single isomer, unassigned) [I-259a, [(1R,2R,3S,4R)-4-{[5-({4-[(1R)-7-bromo-1,2,3,4-tetrahydroisoquinolin-1-yl]-5-chloro-2-thienyl}carbonyl)pyrimidin-4-yl]amino}-2,3-dihydroxycyclopentyl]methyl sulfamate or [(1R,2R,3S,4R)-4-{[5-({4-[(1S)-7-bromo-1,2,3,4-tetrahydroisoquinolin-1-yl]-5-chloro-2-thienyl}carbonyl)pyrimidin-4-yl]amino}-2,3-dihydroxycyclopentyl]methyl sulfamate] | – | < 10 | – | Percent Inhibition (Concentration 0.111 μM): 100 |
| Cc1sc(C(=O)c2cncnc2N[C@@H]2C[C@H](COS(N)(=O)=O)[C@@H](O)C2)cc1C1=NCCc2ccc(Cl)cc21 [I-360, ((1R,2S,4R)-4-{(5-(4-(7-chloro-3,4-dihydroisoquinolin-1-yl)-5-methylthiophene-2-carbonyl)pyrimidin-4-yl)amino)-2-hydroxycyclopentyl)methyl sulfamate] | – | – | < 10 | inhibition at 0.111 µM [1]: 95% |
| NS(=O)(=O)OC[C@H]1C[C@@H](Nc2ncncc2C(=O)c2cc(Cc3cccc(Cl)c3)c(CO)s2)C[C@@H]1O [I-35, {(1R,2S,4R)-4-[(5-{[4-(3-chlorobenzyl)-5-(hydroxymethyl)-2-thienyl]carbonyl}pyrimidin-4-yl)amino]-2-hydroxycyclopentyl}methyl sulfamate] | 98 | < 10 | – | – |
| NS(=O)(=O)OC[C@H]1C[C@@H](Nc2ncncc2C(=O)c2cc([C@@H]3OCC4(CC4)c4ccccc43)cs2)C[C@@H]1O (single isomer, unassigned) [I-281a, [(1R,2S,4R)-2-hydroxy-4-{[5-({4-[(1′R)-1′H-spiro[cyclopropane-1,4′-isochromen]-1′-yl]-2-thienyl}carbonyl)pyrimidin-4-yl]amino}cyclopentyl]methyl sulfamate or [(1R,2S,4R)-2-hydroxy-4-{[5-({4-[(1′S)-1′H-spiro[cyclopropane-1,4′-isochromen]-1′-yl]-2-thienyl}carbonyl)pyrimidin-4-yl]amino}cyclopentyl]methyl sulfamate] | – | – | 10 to 100 | Percent Inhibition [1]: 74% |
| NS(=O)(=O)OC[C@H]1C[C@@H](Nc2ncncc2C(=O)c2cc([C@H](O)c3cccc(Cl)n3)c(Cl)s2)C[C@@H]1O (single isomer, unassigned) [I-2a, [(1R,2S,4R)-4-{[5-({5-chloro-4-[(S)-(6-chloropyridin-2-yl)(hydroxy)methyl]-2-thienyl}carbonyl)pyrimidin-4-yl]amino}-2-hydroxycyclopentyl]methyl sulfamate or [(1R,2S,4R)-4-{[5-({5-chloro-4-[(R)-(6-chloropyridin-2-yl)(hydroxy)methyl]-2-thienyl}carbonyl)pyrimidin-4-yl]amino}-2-hydroxycyclopentyl]methyl sulfamate] | – | < 10 | – | Percent Inhibition (Concentration 0.111 μM): 99 |
